The target of one assay is T1, GRK2 (Homo sapiens, UniProt P25098).
T1 sequence (P25098 1-689): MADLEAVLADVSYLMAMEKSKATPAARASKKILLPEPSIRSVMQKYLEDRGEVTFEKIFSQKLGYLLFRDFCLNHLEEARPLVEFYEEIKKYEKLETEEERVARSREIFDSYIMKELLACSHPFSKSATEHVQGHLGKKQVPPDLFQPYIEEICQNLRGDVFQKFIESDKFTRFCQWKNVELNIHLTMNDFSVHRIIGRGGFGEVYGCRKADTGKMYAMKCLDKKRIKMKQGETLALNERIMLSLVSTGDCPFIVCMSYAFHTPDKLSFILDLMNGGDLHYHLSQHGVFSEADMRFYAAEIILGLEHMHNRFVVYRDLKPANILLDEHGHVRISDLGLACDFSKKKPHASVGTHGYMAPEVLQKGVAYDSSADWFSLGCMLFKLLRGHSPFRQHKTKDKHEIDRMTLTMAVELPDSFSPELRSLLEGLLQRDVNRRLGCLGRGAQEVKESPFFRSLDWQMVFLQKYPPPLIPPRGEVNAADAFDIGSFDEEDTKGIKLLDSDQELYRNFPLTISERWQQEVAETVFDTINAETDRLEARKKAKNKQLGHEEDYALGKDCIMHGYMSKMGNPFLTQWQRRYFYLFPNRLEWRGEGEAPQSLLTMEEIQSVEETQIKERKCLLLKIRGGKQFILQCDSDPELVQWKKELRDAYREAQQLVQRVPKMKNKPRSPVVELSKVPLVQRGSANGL
Briefly: ADPGlo GRK2 Inhibition Assay (Example 2). The format is biochemical. The conditions noted are these: ADP-Glo, 10 μM ATP; read-out: ADP Glo Enzymatic GRK2 Assay: IC50 (nM) (Example 2). As for the experimental part:
Assay: GRK2 (7.5 nM) was incubated with ATP (10 μM) and GRKtide (0.3 mg/mL) in 5 μL of assay buffer (see above) for 180 min at room temperature. HTS was performed using 1 μM compound. Compounds were dissolved in 100% DMSO, serially diluted tree-fold from 100 μM concentration to 46 nM and transferred (50 nL) into assay ready plate.
Materials: GRK2 was purchased from SignalChem (Cat #A14-10G, Lot #X645-3). Substrate GRKtide was from SignalChem (Cat #G46-58, Lot #R339-6). ADP-Glo Kinase Assay from Promega (Cat #V9102). Assay buffer consisted of 25 mM HEPES (pH7.5), 10 mM MgCl2, 0.01% Tween-20, 1 mM DDT. 384-well white plates were from Greiner […] (Item #784075).
HTS protocol: Take 384 well plate with 50 nL of compound in columns 3-22/DMSO solution 1-2,23-24. Add 2.5 μL assay buffer to columns 23 and 24 using Thermo Scientific Multidrop Combi Dispenser. Add 2.5 μL of 2× enzyme solution (15 nM in 1× assay buffer) using Thermo Scientific Multidrop Combi Reagent Dispenser to all columns except of 23 and 24. Incubate for 15 minutes. Fill plate with 2.5 μL of 2× substrate mix (20 μM ATP and 0.6 mg/mL GRKtide in 1× assay buffer) using Thermo Scientific Multidrop Combi Reagent Dispenser. Spin 15 seconds at 1000 rpm and incubate for 180 min at room temperature. Add 5 μL ADP-Glo reagent to all the wells. Spin 15 seconds at 1000 rpm and incubate for 40 min at room temperature. Add 10 μL Detection solution to all the wells. Incubate for 30 min at room temperature. Read plate in Luminescent mode on BMG PheraStar FSX (gain=3600).
Data Analysis: Data were analyzed in GraphPad Prism 8.0.2. Each HTS plate contains compounds in columns 3-22, controls (enzyme, no compound) in columns 1 and 2, and blanks (no enzyme) in columns 23 and 24. HTS percent inhibition was calculated for each compound from the signal in luminescence units and the mean of the plate controls and the mean of the plate blanks using the following equation: % Inhibition=100*(1−((signal−blank mean)/(control mean−blank mean))). At the final stage of data processing, we obtain dose-response curves, tables and SDF-files with the results of screening for each substance.
In general terms: ADP-Glo turns the ADP formed in a reaction into a luminescent signal.

For a further assay, the system named is PAXF1657 KO Clone #4. The experiment in a line: 7-day cellular proliferation assay (CellTiter-Glo), PAXF1657 KO Clone #4. The format is cell-based. Particulars: 168 h, 7-day, read-out: 7-day proliferation assay: IC50 GeoMean (uM) [Cell Line: PAXF1657 KO Clone #4]. Summed up:
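Isogenic PAXF1657 pairs differing in GRK2 level (stable cDNA overexpression or CRISPR knockout, each with matched control) are seeded and allowed to attach overnight. Inhibitors span 30 μM-0.0002 μM in 0.3% DMSO for 3 plus 4 days at 37° C, 5% CO2, with a medium change between.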
On the technique in general: In ATP-based viability assays light output follows the ATP content of the culture.

Drawing on patent publication US20240174637A1, “DEGRADERS OF GRK2 AND USES THEREOF” (Sonata Therapeutics, Inc., priority 2021, published 2024), this text covers IC50 for two compounds.

Consider `Cc1ncsc1-c1ccc(CNC(=O)[C@@H]2C[C@@H](O)CN2C(=O)[C@@H](NC(=O)COCCOCCOCCOCCOCCOCCCCCCOc2cccc(CNC(=O)c3cccc(NCc4nnc(-c5ccncn5)n4C)c3)c2)C(C)(C)C)cc1` [Compound D100], for which the IC50 on GRK2 was below 100 nM; in the assay with PAXF1657 KO Clone #4 it was above 10 µM.
On to `Cc1ncsc1-c1ccc(CNC(=O)[C@@H]2C[C@@H](O)CN2C(=O)[C@@H](NC(=O)COCCOCCCCCCOc2cccc(CNC(=O)c3cccc(NCc4nnc(-c5ccncn5)n4C)c3)c2)C(C)(C)C)cc1` [Compound D101], for which the IC50 was below 100 nM on GRK2 and 1 to 10 µM in the assay with PAXF1657 KO Clone #4.
